# From patent US12023319B2, “Carboxylic acid aromatic amides” (priority 2016, dated 2024)
# Target: T1, human Bradykinin B1 receptor (Homo sapiens, UniProt P46663)
# T1 construct: host or cells: CHO-K1
# T1 sequence (P46663 1-353): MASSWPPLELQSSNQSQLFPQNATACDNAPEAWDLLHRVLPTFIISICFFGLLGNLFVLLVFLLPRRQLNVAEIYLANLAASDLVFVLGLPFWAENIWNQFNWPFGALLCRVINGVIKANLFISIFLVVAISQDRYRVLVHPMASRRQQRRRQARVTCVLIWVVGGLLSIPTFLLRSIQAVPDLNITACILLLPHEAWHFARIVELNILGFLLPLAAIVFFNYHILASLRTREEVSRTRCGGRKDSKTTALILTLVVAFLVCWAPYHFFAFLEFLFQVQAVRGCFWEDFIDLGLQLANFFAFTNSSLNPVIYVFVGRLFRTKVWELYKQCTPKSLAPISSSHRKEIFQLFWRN
# Assay: Calcium flux assay (FLIPR), CHO-K1 cells expressing human Bradykinin B1 receptor, absence of 0.1% BSA (hB1 free IC50)
# Assay type: cell-based
# Conditions: absence of 0.1% BSA in assay buffer
# Procedure: The potency to inhibit the Bradykinin B1 receptor was determined for the Compound Examples of this invention in a cell-based fluorescent calcium-mobilisation assay. The assay measures the ability of Compound Examples to inhibit Bradykinin B1 receptor agonist-induced increase of intracellular free Ca^2+ in the cell line expressing Bradykinin B1 receptor. Specifically, calcium indicator-loaded cells are pre-incubated in the absence or presence of different concentrations of Compound Examples followed by the stimulation with a selective Bradykinin B1 receptor agonist peptide. The change of the intracellular Ca^2+ concentration is monitored with a fluorescent plate reader FLIPR^TETRA® (Molecular Devices).
# Calcium Flux Assays (FLIPR) with Cells Expressing Human Bradykinin B1 Receptor (hB1)
# CHO-K1 cell line expressing human Bradykinin B1 receptor is purchased from Euroscreen (Gosselies, Belgium, with reference name hB1-D1). The cells are grown in Nutrient Mixture Ham's F12 (Sigma) containing 10% Foetal bovine serum (Sigma) and 400 μg/mL G418 (Sigma), 5 μg/mL puromycin (Sigma).
# The effect of BSA on the potency of endothelin receptor antagonists have been described in the prior art (Wu-Wong, J. R. et al. (1997), JPET 281: 791-798). The teaching can be applied in analogy to testing the potency of Bradykinin B1 receptor antagonist in the FLIPR assays.
# For the calcium flux assay, 80% confluent cells are detached from the culture vessels with Versene (Gibco), and seeded into 384-well plates (Cell binding Surface; Corning, NY; #3683) at a density of 15,000 cells per well. Cells are seeded in a volume of 50 μL in medium without antibiotics and incubated overnight in a humidified atmosphere with 5% CO2 at 37° C. […] The calcium indicator loaded cells are incubated at 37° C. for 2 hrs. Extracellular dye is then removed and each well is filled with 45 μL of assay buffer. Cell plates are kept in dark until used. Compound examples are assayed at 8 concentrations in triplicate. Serial 10-fold dilutions in 100% DMSO are made at a 100-times higher concentration than the final concentration, and then diluted 1:10 in assay buffer. 5 μL of each diluted compound is added to the well of cell plates (yielding final concentration with 1% DMSO), and incubated for 30 min at 28° C. before the addition of Bradykinin B1 receptor agonist on the FLIPR instrument.
# The addition of agonist 20 μl per well to the assay plate is carried out on the FLIPR instrument while continuously monitoring Ca2+-dependent fluorescence at 538 nm. A peptide antagonist Lys-(Des-Arg-Leu)-Bradykinin (Bachem, Brackley) at 20 µM is used to determine the full inhibition as control.
# Peak fluorescence is used to determine the response to agonist obtained at each concentration of Compound Examples by the following equation: % Response=100*(RFU(compound)−RFU(control))/(RFU(DMSO)−RFU(control))
# RFU means relative fluorescence units.
# Control means full inhibition by the peptide antagonist Lys-(Des-Arg-Leu)-Bradykinin at 20 µM.
# The response values are plotted against the logarithm of the compound concentrations. The Compound Examples are tested in triplicates per plate and mean values are plotted in Excel XLfit to determine IC50 values, percentage of maximal inhibition and the Hill slopes.
row,IC50 [nM],Compound
1,320,"CC1CCC(C2(C(=O)Nc3cc(F)c(-c4cnn(C5CCC5)c4)c(C(=O)O)c3)CC2)CC1 (mixture of isomers) [Example 144, 2-(1-Cyclobutyl-1H-pyrazol-4-yl)-3-fluoro-5-({[1-(4-methylcyclohexyl)cyclopropyl]carbonyl}amino)benzoic acid]"
2,26,"O=C(O)c1cc(NC(=O)C2(c3ccc(Cl)cc3)CC2)cc(F)c1-c1cnn(C2CCC2)c1 [Example 35, 5-({[1-(4-Chlorophenyl)cyclopropyl]carbonyl}amino)-2-(1-cyclobutyl-1H-pyrazol-4-yl)-3-fluorobenzoic acid]"
3,22,"O=C(O)c1cc(NC(=O)C2(c3ccc(F)c(F)c3)CC2)cc(F)c1-c1cnn(C2CCC2)c1 [Example 38, 2-(1-Cyclobutyl-1H-pyrazol-4-yl)-5-({[1-(3,4-difluorophenyl)cyclopropyl]carbonyl}amino)-3-fluorobenzoic acid]"
4,47,"O=C(O)c1cc(NC(=O)C2(c3ccc(Cl)c(F)c3)CC2)ccc1-c1cnn(C2CCC2)c1 [Example 49, 5-({[1-(4-Chloro-3-fluorophenyl)cyclopropyl]carbonyl}amino)-2-(1-cyclobutyl-1H-pyrazol-4-yl)benzoic acid]"
5,62,"O=C(O)c1cc(NC(=O)C2(c3ccc(C(F)(F)F)cc3)CC2)ccc1-c1cnn(C2CCC2)c1 [Example 50, 2-(1-Cyclobutyl-1H-pyrazol-4-yl)-5-[({1-[4-(trifluoromethyl)phenyl]cyclopropyl}carbonyl)amino]benzoic acid]"
6,740,"O=C(O)c1cc(NC(=O)C2(c3cccc(Cl)c3F)CC2)ccc1-c1cnn(C2CCC2)c1 [Example 52, 5-({[1-(3-Chloro-2-fluorophenyl)cyclopropyl]carbonyl}amino)-2-(1-cyclobutyl-1H-pyrazol-4-yl)benzoic acid]"
7,280,"O=C(O)c1cc(NC(=O)C2(c3cc(F)ccc3F)CC2)ccc1-c1cnn(C2CCC2)c1 [Example 55, 2-(1-Cyclobutyl-1H-pyrazol-4-yl)-5-({[1-(2,5-difluorophenyl)cyclopropyl]carbonyl}amino)benzoic acid]"
8,85,"O=C(O)c1cc(NC(=O)C2(c3ccc(F)c(Cl)c3)CC2)ccc1-c1cnn(C2CCC2)c1 [Example 56, 5-({[1-(3-Chloro-4-fluorophenyl)cyclopropyl]carbonyl}amino)-2-(1-cyclobutyl-1H-pyrazol-4-yl)benzoic acid]"

# Continued, compound first:
row,Compound,IC50 [nM]
1,"O=C(O)c1cc(NC(=O)C2(c3cc(F)c(F)cc3F)CC2)ccc1-c1ccc(C(F)(F)F)nc1 [Example 8, 2-[6-(Trifluoromethyl)pyridin-3-yl]-5-({[1-(2,4,5-trifluorophenyl)cyclopropyl]carbonyl}amino)benzoic acid]",690
2,"O=C(O)c1cc(NC(=O)C2(c3ccc(C(F)(F)F)cc3F)CC2)ccc1-n1ccc(CC(F)(F)F)n1 [Example 15, 5-[({1-[2-Fluoro-4-(trifluoromethyl)phenyl]cyclopropyl}carbonyl)amino]-2-[3-(2,2,2-trifluoroethyl)-1H-pyrazol-1-yl]benzoic acid]",3600
3,"O=C(O)c1cc(NC(=O)C2(c3ccc(C(F)(F)F)cc3F)CC2)ccc1-n1cc(C(F)(F)F)cn1 [Example 16, 5-[({1-[2-Fluoro-4-(trifluoromethyl)phenyl]cyclopropyl}carbonyl)amino]-2-[4-(trifluoromethyl)-1H-pyrazol-1-yl]benzoic acid]",2800
4,"CCC(F)(F)c1ccc(-c2ccc(NC(=O)C3(c4ccc(C(F)(F)F)cc4)CC3)cc2C(=O)O)cn1 [Example 21, 2-[6-(1,1-Difluoropropyl)pyridin-3-yl]-5-[({1-[4-(trifluoromethyl)phenyl]cyclopropyl}carbonyl)amino]benzoic acid]",710
5,"CCC(F)(F)c1ccc(-c2ccc(NC(=O)C3(c4ccc(OC(F)(F)F)cc4)CC3)cc2C(=O)O)cn1 [Example 22, 2-[6-(1,1-Difluoropropyl)pyridin-3-yl]-5-[({1-[4-(trifluoromethoxy)phenyl]cyclopropyl}carbonyl)amino]benzoic acid]",290
6,"CCC(F)(F)c1ccc(-c2ccc(NC(=O)C3(c4ccc(F)cc4F)CC3)cc2C(=O)O)cn1 [Example 23, 5-({[1-(2,4-Difluorophenyl)cyclopropyl]carbonyl}amino)-2-[6-(1,1-difluoropropyl)pyridin-3-yl]benzoic acid]",2400
7,"CCC(F)(F)c1ccc(-c2ccc(NC(=O)C3(c4ccc(Cl)cc4F)CC3)cc2C(=O)O)cn1 [Example 24, 5-({[1-(4-Chloro-2-fluorophenyl)cyclopropyl]carbonyl}amino)-2-[6-(1,1-difluoropropyl)pyridin-3-yl]benzoic acid]",290
8,"Cc1ccc(C2(C(=O)Nc3ccc(-c4ccc(C(C)(F)F)nc4)c(C(=O)O)c3)CC2)c(F)c1 [Example 30, 2-[6-(1,1-Difluoroethyl)pyridin-3-yl]-5-({[1-(2-fluoro-4-methylphenyl)cyclopropyl]carbonyl}amino)benzoic acid]",410
9,"CC(F)(F)c1ccc(-c2ccc(NC(=O)C3(c4ccc(C(F)(F)F)cc4F)CC3)cc2C(=O)O)cn1 [Example 31, 2-[6-(1,1-Difluoroethyl)pyridin-3-yl]-5-[({1-[2-fluoro-4-(trifluoromethyl)phenyl]cyclopropyl}carbonyl)amino]benzoic acid]",130
10,"CC(F)(F)c1ccc(-c2ccc(NC(=O)C3(c4ccc(OC(F)(F)F)cc4F)CC3)cc2C(=O)O)cn1 [Example 32, 2-[6-(1,1-Difluoroethyl)pyridin-3-yl]-5-[({1-[2-fluoro-4-(trifluoromethoxy)phenyl]cyclopropyl}carbonyl)amino]benzoic acid]",190
11,"CC(O)c1ccc(-c2ccc(NC(=O)C3(c4ccc(C(F)(F)F)cc4F)CC3)cc2C(=O)O)cn1 (stereo not drawn) [Example 33, 5-[({1-[2-Fluoro-4-(trifluoromethyl)phenyl]cyclopropyl}carbonyl)amino]-2-[6-(1-hydroxyethyl)pyridin-3-yl]benzoic acid]",460
12,"O=C(O)c1cc(NC(=O)C2(c3ccc(C(F)(F)F)cc3F)CC2)ccc1-c1cnn(CC(F)(F)F)c1 [Example 34, 5-[({1-[2-Fluoro-4-(trifluoromethyl)phenyl]cyclopropyl}carbonyl)amino]-2-[1-(2,2,2-trifluoroethyl)-1H-pyrazol-4-yl]benzoic acid]",31
13,"O=C(O)c1cc(NC(=O)C2(c3ccc(C(F)(F)F)cc3F)CC2)ccc1-c1cn(C2CCC2)nc1F [Example 45, 2-(1-Cyclobutyl-3-fluoro-1H-pyrazol-4-yl)-5-[({1-[2-fluoro-4-(trifluoromethyl)phenyl]cyclopropyl}carbonyl)amino]benzoic acid]",55
14,"O=C(O)c1cc(NC(=O)C2(c3ccc(C(F)(F)F)cc3F)CC2)ccc1-c1cc2cccnc2s1 [Example 46, 5-[({1-[2-Fluoro-4-(trifluoromethyl)phenyl]cyclopropyl}carbonyl)amino]-2-(thieno[2,3-b]pyridin-2-yl)benzoic acid]",58
15,"O=C(O)c1cc(NC(=O)C2(c3ccc(C(F)(F)F)cc3F)CC2)ccc1-c1ccc(Cl)s1 [Example 47, 2-(5-Chloro-2-thienyl)-5-[({1-[2-fluoro-4-(trifluoromethyl)phenyl]cyclopropyl}carbonyl)amino]benzoic acid]",230
16,"O=C(O)c1cc(NC(=O)C2(c3ccc(C(F)(F)F)cc3F)CC2)ccc1-c1ccc(C(F)(F)F)s1 [Example 48, 5-[({1-[2-Fluoro-4-(trifluoromethyl)phenyl]cyclopropyl}carbonyl)amino]-2-[5-(trifluoromethyl)-2-thienyl]benzoic acid]",220
